# How the values were obtained:
# [1] = system: large (Lg) crabgrass; assay: Test A preemergence; format: in vivo, Digitaria sanguinalis
# How it was run: (§1)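 Compounds in non-phytotoxic solvent with surfactant applied as soil spray preemergence, or postemergence to plants 2-10 cm at one- to two-leaf stage, in loam/sand. After approximately 10 days in greenhouse, injury rated visually versus untreated controls, 0 (no effect) to 100 (complete control).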
# [2] = system: barnyardgrass; assay: Test A postemergence; format: in vivo, Echinochloa crus-galli
# How it was run: as §1
# [3] = system: wheat; assay: Test A postemergence; format: in vivo, Triticum aestivum
# How it was run: as §1
# [4] = system: Heteranthera limosa; assay: Test B flooded paddy test; format: in vivo; conditions: Flood, 250 g ai/ha, 0 to 100 scale where 0 is no effect and 100 is complete control
# How it was run: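 Evaluation is visual, against untreated controls, 13 to 15 days after treatment. Before treatment, plants reached the 2-leaf stage; pots were then flooded 3 cm deep, compound was added to the water, and that level was maintained. Ratings run 0 to 100, with 100 meaning complete control.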
# [5] = system: blackgrass; assay: Test C preemergence; format: in vivo, Alopecurus myosuroides
# How it was run: (§2)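 Plants were kept under greenhouse conditions for 13–15 days following spray. Pre-emergent application went to soil (loam–sand), post-emergent to foliage at 1–4 leaves. Evaluation: visual, percent control against untreated checks.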
# [6] = system: Italian ryegrass; assay: Test C preemergence; format: in vivo, Lolium multiflorum
# How it was run: as §2
# [7] = system: wheat, winter; assay: Test C preemergence; format: in vivo, Triticum aestivum
# How it was run: as §2
# [8] = system: galium; assay: Test C preemergence; format: in vivo, Galium aparine
# How it was run: as §2
# [9] = system: morningglory; assay: Test C preemergence; format: in vivo, Ipomoea coccinea
# How it was run: as §2
# [10] = system: waterhemp; assay: Test C preemergence; format: in vivo, Amaranthus rudis
# How it was run: as §2
# [11] = 125 g ai/ha, 0 to 100 scale where 0 is no effect and 100 is complete control
# [12] = 500 g ai/ha, 0 to 100 scale where 0 is no effect and 100 is complete control
# [13] = 16 g ai/ha, preemergence, scale 0 to 100 (0 no effect, 100 complete control)
# [14] = 62 g ai/ha, preemergence, scale 0 (no effect) to 100 (complete control)
# [15] = 125 g ai/ha, preemergence, scale 0 (no effect) to 100 (complete control)
# [16] = Preemergence, 31 g ai/ha, scale 0 to 100, 0 no effect, 100 complete control
# [17] = 31 g ai/ha, 0 to 100 scale, 0 no effect, 100 complete control
# [18] = 125 g ai/ha, 0 to 100 scale, 0 no effect, 100 complete control
# [19] = Preemergence, 62 g ai/ha, scale 0 to 100, 0 no effect, 100 complete control
smiles,measurement,setting,value
Fc1cnc(Oc2cccc(C(F)F)c2-n2cc(Br)cn2)nc1 [Compound 112],"Plant response rating, Crabgrass, Large",[1]; [11],100
same,"Crabgrass, Large plant response rating","[1]; 500 g ai/ha, 0 to 100 scale, 0 no effect, 100 complete control, approx. 10 days",100
same,"Plant response rating, Barnyardgrass",[2]; [11],40
same,"Plant response rating, Barnyardgrass",[2]; [12],90
same,"Plant response rating, Wheat",[3]; [12],70
same,"Plant response rating, Ducksalad",[4],90
same,Blackgrass plant response rating,[5]; [13],0
same,Blackgrass plant response rating,[5]; [14],40
same,Blackgrass plant response rating,[5]; [15],95
same,"Plant response rating, Blackgrass",[5]; [16],30
same,"Ryegrass, Italian plant response rating",[6]; [13],0
same,"Ryegrass, Italian plant response rating",[6]; [14],5
same,"Ryegrass, Italian plant response rating",[6]; [15],30
same,"Plant response rating, Ryegrass, Italian",[6]; [16],0
same,Wheat plant response rating,[7]; [13],0
same,Wheat plant response rating,[7]; [14],0
same,Wheat plant response rating,[7]; [15],10
same,"Plant response rating, Wheat",[7]; [16],0
same,Galium plant response rating,[8]; [13],55
same,Galium plant response rating,[8]; [14],100
same,Galium plant response rating,[8]; [15],95
same,"Plant response rating, Galium",[8]; [16],98
same,Morningglory plant response rating,[9]; [13],5
same,Morningglory plant response rating,[9]; [14],65
same,Morningglory plant response rating,[9]; [15],75
same,"Plant response rating, Morningglory",[9]; [16],15
same,Waterhemp plant response rating,[10]; [13],90
same,Waterhemp plant response rating,[10]; [14],100
same,Waterhemp plant response rating,[10]; [15],100
same,"Plant response rating, Waterhemp",[10]; [16],98
"N#Cc1cccc(Oc2ncc(Cl)cn2)c1-n1cnc(C(F)(F)F)c1 [Compound 252, 3-[(5-chloro-2-pyrimidinyl)oxy]-2-[4-(trifluoromethyl)-1H-imidazol-1-yl]benzonitrile]",pest or weed control at 31 g/ha,"[2]; Echinochloa crus-galli, post-emergence, 240 h, 31 g ai/ha, 0 to 100 scale, 0 no effect, 100 complete control, read-out: Plant response rating, Barnyardgrass",20%
same,pest or weed control at 125 g/ha,"[2]; Echinochloa crus-galli, post-emergence, 240 h, 125 g ai/ha, 0 to 100 scale, 0 no effect, 100 complete control, read-out: Plant response rating, Barnyardgrass",100%
same,pest or weed control at 500 g/ha,"[2]; Echinochloa crus-galli, post-emergence, 240 h, 500 g ai/ha, 0 to 100 scale where 0 is no effect and 100 is complete control, read-out: Plant response rating, Barnyardgrass",100%
same,plant injury at 31 g/ha,"[3]; Triticum aestivum, post-emergence, 240 h, 31 g ai/ha, 0 to 100 scale, 0 no effect, 100 complete control, read-out: Plant response rating, Wheat",20%
same,plant injury at 125 g/ha,"[3]; Triticum aestivum, post-emergence, 240 h, 125 g ai/ha, 0 to 100 scale, 0 no effect, 100 complete control, read-out: Plant response rating, Wheat",30%
same,plant injury at 500 g/ha,"[3]; Triticum aestivum, post-emergence, 240 h, 500 g ai/ha, 0 to 100 scale where 0 is no effect and 100 is complete control, read-out: Plant response rating, Wheat",90%
same,pest or weed control at 250 g/ha,"[4]; Heteranthera limosa, read-out: Plant response rating, Ducksalad",75%
same,pest or weed control at 16 g/ha,"[5]; Alopecurus myosuroides, pre-emergence, 16 g ai/ha, preemergence, scale 0 to 100 (0 no effect, 100 complete control), read-out: Blackgrass plant response rating",10%
same,pest or weed control at 125 g/ha,"[5]; Alopecurus myosuroides, pre-emergence, 125 g ai/ha, preemergence, scale 0 (no effect) to 100 (complete control), read-out: Blackgrass plant response rating",95%
same,pest or weed control at 62 g/ha,"[5]; Alopecurus myosuroides, pre-emergence, Preemergence, 62 g ai/ha, scale 0 to 100, 0 no effect, 100 complete control, read-out: Plant response rating, Blackgrass",90%
same,pest or weed control at 16 g/ha,"[6]; Lolium multiflorum, pre-emergence, 16 g ai/ha, preemergence, scale 0 to 100 (0 no effect, 100 complete control), read-out: Ryegrass, Italian plant response rating",0%
same,pest or weed control at 125 g/ha,"[6]; Lolium multiflorum, pre-emergence, 125 g ai/ha, preemergence, scale 0 (no effect) to 100 (complete control), read-out: Ryegrass, Italian plant response rating",90%
same,pest or weed control at 62 g/ha,"[6]; Lolium multiflorum, pre-emergence, Preemergence, 62 g ai/ha, scale 0 to 100, 0 no effect, 100 complete control, read-out: Plant response rating, Ryegrass, Italian",60%
same,plant injury at 16 g/ha,"[7]; Triticum aestivum, pre-emergence, 16 g ai/ha, preemergence, scale 0 to 100 (0 no effect, 100 complete control), read-out: Wheat plant response rating",0%
same,plant injury at 125 g/ha,"[7]; Triticum aestivum, pre-emergence, 125 g ai/ha, preemergence, scale 0 (no effect) to 100 (complete control), read-out: Wheat plant response rating",45%
same,plant injury at 62 g/ha,"[7]; Triticum aestivum, pre-emergence, Preemergence, 62 g ai/ha, scale 0 to 100, 0 no effect, 100 complete control, read-out: Plant response rating, Wheat",0%
same,pest or weed control at 16 g/ha,"[8]; Galium, pre-emergence, 16 g ai/ha, preemergence, scale 0 to 100 (0 no effect, 100 complete control), read-out: Galium plant response rating",80%
same,pest or weed control at 125 g/ha,"[8]; Galium, pre-emergence, 125 g ai/ha, preemergence, scale 0 (no effect) to 100 (complete control), read-out: Galium plant response rating",98%
same,pest or weed control at 62 g/ha,"[8]; Galium, pre-emergence, Preemergence, 62 g ai/ha, scale 0 to 100, 0 no effect, 100 complete control, read-out: Plant response rating, Galium",90%
same,pest or weed control at 16 g/ha,"[9]; Ipomoea, pre-emergence, 16 g ai/ha, preemergence, scale 0 to 100 (0 no effect, 100 complete control), read-out: Morningglory plant response rating",45%
same,pest or weed control at 125 g/ha,"[9]; Ipomoea, pre-emergence, 125 g ai/ha, preemergence, scale 0 (no effect) to 100 (complete control), read-out: Morningglory plant response rating",100%
same,pest or weed control at 62 g/ha,"[9]; Ipomoea, pre-emergence, Preemergence, 62 g ai/ha, scale 0 to 100, 0 no effect, 100 complete control, read-out: Plant response rating, Morningglory",95%
same,pest or weed control at 16 g/ha,"[10]; Amaranthus tuberculatus, pre-emergence, 16 g ai/ha, preemergence, scale 0 to 100 (0 no effect, 100 complete control), read-out: Waterhemp plant response rating",100%
same,pest or weed control at 125 g/ha,"[10]; Amaranthus tuberculatus, pre-emergence, 125 g ai/ha, preemergence, scale 0 (no effect) to 100 (complete control), read-out: Waterhemp plant response rating",100%
same,pest or weed control at 62 g/ha,"[10]; Amaranthus tuberculatus, pre-emergence, Preemergence, 62 g ai/ha, scale 0 to 100, 0 no effect, 100 complete control, read-out: Plant response rating, Waterhemp",100%
Fc1cccc(Oc2ncc(Cl)cn2)c1-n1cc(OCC(F)(F)F)cn1 [Compound 270],"Plant response rating, Barnyardgrass",[2]; [17],10
same,"Plant response rating, Barnyardgrass",[2]; [18],80
same,"Plant response rating, Wheat",[3]; [17],0
same,"Plant response rating, Wheat",[3]; [18],30
same,"Plant response rating, Ducksalad",[4],100
same,Blackgrass plant response rating,[5]; [13],0
same,Blackgrass plant response rating,[5]; [15],95
same,"Plant response rating, Blackgrass",[5]; [19],70
same,"Ryegrass, Italian plant response rating",[6]; [13],0
same,"Ryegrass, Italian plant response rating",[6]; [15],50
same,"Plant response rating, Ryegrass, Italian",[6]; [19],10
same,Wheat plant response rating,[7]; [13],0
same,Wheat plant response rating,[7]; [15],5
same,"Plant response rating, Wheat",[7]; [19],0
same,Galium plant response rating,[8]; [13],70
same,Galium plant response rating,[8]; [15],100
same,"Plant response rating, Galium",[8]; [19],95
same,Morningglory plant response rating,[9]; [13],0
same,Morningglory plant response rating,[9]; [15],100
same,"Plant response rating, Morningglory",[9]; [19],55
same,Waterhemp plant response rating,[10]; [13],80
same,Waterhemp plant response rating,[10]; [15],100
same,"Plant response rating, Waterhemp",[10]; [19],100

# Source: patent US9695155B2, “Herbicidal substituted pyrimidinyloxy benzene compounds” (E. I. DU PONT DE NEMOURS AND COMPANY, priority 2013, dated 2017)
